Reference: patent US12492181B2, “Gem-disubstituted piperidine melanocortin subtype-2 receptor (MC2R) antagonists and uses thereof” (Crinetics Pharmaceuticals, Inc., priority 2019, dated 2025)
pKi: −log10 of the molar value.

Target: T1, hMC2 receptor (crude hMC2R membranes from CRE-bla-CHO-K1 cells stably expressing hMC2 receptor and hMRAP accessory protein) (Homo sapiens, UniProt Q01718)
T1 construct: crude membrane fractions
Test: hMC2 membrane binding assay ([125I]ACTH (1-39) Tyr23, SPA)
Settings: displacement of 0.2 nM [125I]ACTH (1-39) Tyr23 from hMC2R membranes, 1.5 hours at room temperature; read-out: MC2R binding potency
Summary of the method: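 Ki values come from non-linear regression of SPA scintillation counts, with compounds displacing [125I]ACTH(1-39) Tyr23. Membranes come from CRE-bla-CHO-K1 cells stably expressing hMC2 receptor together with hMRAP. They are preincubated with WGA-coated PVT SPA beads in 50 mM HEPES pH 7.4 with 0.20% BSA, Mg2+, Ca2+ and protease inhibitors.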

T1 sequence (Q01718 whole entry): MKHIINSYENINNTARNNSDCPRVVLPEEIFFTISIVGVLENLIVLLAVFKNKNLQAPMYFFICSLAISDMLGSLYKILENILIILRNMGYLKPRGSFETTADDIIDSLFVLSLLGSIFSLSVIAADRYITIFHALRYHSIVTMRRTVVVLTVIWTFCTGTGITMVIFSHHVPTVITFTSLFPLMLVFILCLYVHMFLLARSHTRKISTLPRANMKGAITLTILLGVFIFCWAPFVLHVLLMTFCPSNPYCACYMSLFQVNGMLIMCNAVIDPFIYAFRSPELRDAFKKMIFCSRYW
T1 sequence (Q8TCY5 whole entry partner): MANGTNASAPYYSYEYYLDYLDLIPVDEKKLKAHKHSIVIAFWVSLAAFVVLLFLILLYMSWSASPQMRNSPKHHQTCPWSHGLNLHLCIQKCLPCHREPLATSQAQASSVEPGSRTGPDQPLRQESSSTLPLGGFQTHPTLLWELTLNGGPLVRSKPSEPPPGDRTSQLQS

Structure (SMILES)	pKi
CN(C)[C@@H](CO)CNC(=O)C1(c2ccc(-c3cccn3C)nc2)CCN(c2ccc(C(F)(F)F)cc2C#N)CC1 [Compound 1-275, 1-[2-cyano-4-(trifluoromethyl)phenyl]-N-[(2R)-2-(dimethylamino)-3-hydroxypropyl]-4-[6-(1-methyl-1H-pyrrol-2-yl)pyridin-3-yl]piperidine-4-carboxamide]	> 8.00
CCOc1ncccc1-c1ccc(C2(C(=O)N[C@H]3CCN(C)C3)CCN(c3ccc(Cl)cc3C#N)CC2)nn1 [Compound 1-139, 1-(4-chloro-2-cyanophenyl)-4-[6-(2-ethoxypyridin-3-yl)pyridazin-3-yl]-N-[(3S)-1-methylpyrrolidin-3-yl]piperidine-4-carboxamide]	> 8.00
CCOc1ncccc1-c1ccc(C2(C(=O)NC3CN(C)CC3O)CCN(c3ccc(C(F)(F)F)cc3C#N)CC2)cn1 (single isomer, unassigned) [Compound 1-46, 1-[2-cyano-4-(trifluoromethyl)phenyl]-4-{2′-ethoxy-[2,3′-bipyridin]-5-yl}-N-[(3R,4R)*-4-hydroxy-1-methylpyrrolidin-3-yl]piperidine-4-carboxamide]	> 8.00
CN(C)CCNC(=O)C1(c2cnc(-c3cccn3C)c(F)c2)CCN(c2ccc(C(F)(F)F)cc2Cl)CC1 [Compound 1-309, 1-[2-chloro-4-(trifluoromethyl)phenyl]-N-[2-(dimethylamino)ethyl]-4-[5-fluoro-6-(1-methyl-1H-pyrrol-2-yl)pyridin-3-yl]piperidine-4-carboxamide]	> 8.00
CNCCNC(=O)C1(c2ccc(-c3cccn3C)nc2)CCN(c2ccc(C(F)(F)F)cc2F)CC1 [Compound 1-281, 1-[2-fluoro-4-(trifluoromethyl)phenyl]-4-[6-(1-methyl-1H-pyrrol-2-yl)pyridin-3-yl]-N-[2-(methylamino)ethyl]piperidine-4-carboxamide]	> 8.00
CCOc1ccccc1-c1ccc(C2(C(=O)N[C@H]3CCN(C)C3)CCN(c3ccc(C(F)(F)F)cc3Cl)CC2)cn1 [Compound 1-97, 1-[2-chloro-4-(trifluoromethyl)phenyl]-4-[6-(2-ethoxyphenyl)pyridin-3-yl]-N-[(3S)-1-methylpyrrolidin-3-yl]piperidine-4-carboxamide]	> 8.00
CCOc1ccccc1-c1ccc(C2(C(=O)NCCNC)CCN(c3ccc(C(F)(F)F)cc3F)CC2)cn1 [Compound 1-227, 4-[6-(2-ethoxyphenyl)pyridin-3-yl]-1-[2-fluoro-4-(trifluoromethyl)phenyl]-N-[2-(methylamino)ethyl]piperidine-4-carboxamide]	> 8.00
CCOc1ncccc1-c1ccc(C2(C(=O)NC[C@@H](C)N)CCN(c3ccc(C(F)(F)F)cc3C#N)CC2)cc1 [Compound 1-4, N-[(2R)-2-aminopropyl]-1-[2-cyano-4-(trifluoromethyl)phenyl]-4-[4-(2-ethoxypyridin-3-yl)phenyl]piperidine-4-carboxamide]	7.00 to 8.00
CNCCNC(=O)C1(c2cnc(-c3ccccc3OC)c(F)c2)CCN(c2ccc(C(F)(F)F)cc2Cl)CC1 [Compound 1-294, 1-[2-chloro-4-(trifluoromethyl)phenyl]-4-[5-fluoro-6-(2-methoxyphenyl)pyridin-3-yl]-N-[2-(methylamino)ethyl]piperidine-4-carboxamide]	7.00 to 8.00
CN1CC[C@H](NC(=O)C2(c3ccc(-c4cccn4C)nn3)CCN(c3ccc(C(F)(F)F)cc3Cl)CC2)C1 [Compound 1-169, 1-[2-chloro-4-(trifluoromethyl)phenyl]-4-[6-(1-methyl-1H-pyrrol-2-yl)pyridazin-3-yl]-N-[(3S)-1-methylpyrrolidin-3-yl]piperidine-4-carboxamide]	> 8.00
Cc1cccnc1-c1ccc(C2(C(=O)N[C@@H]3CCN(C)C3)CCN(c3ccc(C(F)(F)F)cc3C#N)CC2)cn1 [Compound 1-177, 1-[2-cyano-4-(trifluoromethyl)phenyl]-4-{3′-methyl-[2,2′-bipyridin]-5-yl}-N-[(3R)-1-methylpyrrolidin-3-yl]piperidine-4-carboxamide]	6.00 to 7.00
CCc1ccccc1-c1ccc(C2(C(=O)N[C@H]3CCN(C)C3)CCN(c3ccc(C(F)(F)F)cc3C#N)CC2)cn1 [Compound 1-104, 1-[2-cyano-4-(trifluoromethyl)phenyl]-4-[6-(2-ethylphenyl)pyridin-3-yl]-N-[(3S)-1-methylpyrrolidin-3-yl]piperidine-4-carboxamide]	> 8.00
CN1CC[C@@H](NC(=O)C2(c3ccc(-c4cc5ccccc5n4C)nc3)CCN(c3ccc(C(F)(F)F)cc3C#N)CC2)C1 [Compound 1-191, 1-[2-cyano-4-(trifluoromethyl)phenyl]-4-[6-(1-methyl-1H-indol-2-yl)pyridin-3-yl]-N-[(3R)-1-methylpyrrolidin-3-yl]piperidine-4-carboxamide]	7.00 to 8.00
CCOc1ncccc1-c1ccc(C2(NC(=O)[C@@H]3CCN(C)C3)CCN(c3ccc(C(F)(F)F)cc3C#N)CC2)cn1 [Compound 2-7, (3R)—N-{1-[2-cyano-4-(trifluoromethyl)phenyl]-4-{2′-ethoxy-[2,3′-bipyridin]-5-yl}piperidin-4-yl}-1-methylpyrrolidine-3-carboxamidev]	> 8.00
COc1ccccc1-c1ccc(C2(C(=O)NC[C@@H]3CCN3)CCN(c3ccc(C(F)(F)F)cc3C#N)CC2)cn1 [Compound 1-213, N-{[(2S)-azetidin-2-yl]methyl}-1-[2-cyano-4-(trifluoromethyl)phenyl]-4-[6-(2-methoxyphenyl)pyridin-3-yl]piperidine-4-carboxamide]	> 8.00
CNCCNC(=O)C1(c2cnc(-c3ccccc3OC)c(F)c2)CCN(c2ccc(C(F)(F)F)cc2F)CC1 [Compound 1-293, 1-[2-fluoro-4-(trifluoromethyl)phenyl]-4-[5-fluoro-6-(2-methoxyphenyl)pyridin-3-yl]-N-[2-(methylamino)ethyl]piperidine-4-carboxamide]	> 8.00
COc1ccc(F)cc1-c1ccc(C2(C(=O)N[C@@H]3CCN(C)C3)CCN(c3ccc(C(F)(F)F)cc3C#N)CC2)cn1 [Compound 1-81, 1-[2-cyano-4-(trifluoromethyl)phenyl]-4-[6-(5-fluoro-2-methoxyphenyl)pyridin-3-yl]-N-[(3R)-1-methylpyrrolidin-3-yl]piperidine-4-carboxamide]	> 8.00
CN(CCNC(=O)C1(c2ccc(-c3cccn3C)nc2)CCN(c2ccc(C(F)(F)F)cc2C#N)CC1)C1CC1 [Compound 1-266, 1-[2-cyano-4-(trifluoromethyl)phenyl]-N-{2-[cyclopropyl(methyl)amino]ethyl}-4-[6-(1-methyl-1H-pyrrol-2-yl)pyridin-3-yl]piperidine-4-carboxamide]	> 8.00
CCOc1ncccc1-c1ccc(C2(C(=O)N[C@@H]3CCN(C)C3)CCN(c3ccc(C(F)(F)F)cc3C#N)CC2)nc1 [Compound 1-22, 1-[2-cyano-4-(trifluoromethyl)phenyl]-4-{2′-ethoxy-[3,3′-bipyridin]-6-yl}-N-[(3R)-1-methylpyrrolidin-3-yl]piperidine-4-carboxamide]	> 8.00
CCOc1ccccc1-c1ccc(C2(C(=O)NCCN(C)C)CCN(c3ccc(C(F)(F)F)cc3F)CC2)cn1 [Compound 1-226, N-[2-(dimethylamino)ethyl]-4-[6-(2-ethoxyphenyl)pyridin-3-yl]-1-[2-fluoro-4-(trifluoromethyl)phenyl]piperidine-4-carboxamide]	> 8.00
